# What was measured:
# [1] = test system: 3T3L1-GLUT4myc adipocytes; test: Glucose uptake assay in 3T3L1-GLUT4myc adipocytes; assay type: cell-based; conditions: 2 hr
# Procedure: (§1) 3T3L1-GLUT4myc fibroblast strain expressing GLUT4myc was used. The cells are constructed by inserting human c-MYC epitope (14 amino acids) into the first ectodomain. It is possible to track transport of GLUT4 onto cell membrane surface by using an antic-myc antibody.
# The cells were cultured in Dulbecco's Modified Eagles Medium (DMEM) added with 10% (v/v) bovine serum, penicillin (final concentration, 100 U/ml) and streptomycin (final concentration, 0.1 mg/ml) in a humid environment under 5% CO2 and 95% air at 37° C. […]
# 3T3L1-GLUT4myc adipocytes were incubated in Krebs-Ringer-HEPES buffer [136 mM NaCl, 4.7 mM KCl, 1.25 mM CaCl2, 1.25 mM MgSO4 and 20 mM HEPES, pH 7.5] containing 0.2% (w/v) bovine serum albumin (BSA) and added with 10 mM glucose at 37° C. for […]. […] ABEE-labeled glucose was detected using a fluorescence detector at an excitation wavelength 305 nm and a fluorescence wavelength 360 nm. The amount of glucose uptaken into the cells after incubation for 2 hr is calculated by subtracting the extracellular glucose concentration from the initial extracellular glucose concentration (10 mM).
# 3T3L1-GLUT4myc adipocytes were incubated in glucose-containing (10 mM) PBS in the presence or absence of a given concentration of DCP-LA for 2 hr, and extracellular glucose concentration was measured by HPLC. […]
# GLUT4 = GLUT4 mobilization monitoring (Western blotting with anti-c-myc antibody); assay type: cell-based; conditions: 100 nM DCP-LA, 20 min; c-myc signal in cellular membrane fraction/total cell; FIG. 2
# Procedure: as §1
# The cells were cultured in Dulbecco's Modified Eagles Medium (DMEM) added with 10% (v/v) bovine serum, penicillin (final concentration, 100 U/ml) and streptomycin (final concentration, 0.1 mg/ml) in a humid environment under 5% CO2 and 95% air at 37° C. When the cells reached confluence (day 0), the medium was exchanged with DMEM added with 10% (v/v) fetal bovine serum (FBS), 1 μM dexamethasone, 0.5 mM 3-isobutyl-methyl-xanthine and 0.1 mg/ml insulin to allow for differentiation from fibroblast into adipocyte. The medium was exchanged with DMEM added with 10% (v/v) FBS on day 3, day 7 and day 11. On day 14, the cell differentiated into adipocyte were used for the experiment. […]
# The protein concentration of each fraction was measured using BCA protein assay kit (Thermo Fisher Scientific, Waltham, Mass., USA). […] The immunoreactivity was detected using ECL kit (Invitrogen), and visualized using a chemical luminescence detection system (chemiluminescence detection system; GE Healthcare, Piscataway, N.J., USA). The signal density was measured using an image analysis software (Image Gauge software; GE Healthcare). […]
# [2] = test system: type 1 diabetes model mouse (STZ-treated C57BL/6J mouse); test: Oral glucose tolerance test in type 1 diabetes model mouse; assay type: in vivo; conditions: DCP-LA 0.001, 0.01, 0.1 mg/kg orally 30 min before glucose 2 g/kg, 0-90 min, FIG. 3A
# Procedure: Type 1 diabetes model mouse was prepared by intraperitoneal administration of streptozotocin (STZ; 250 mg/kg) to C57BL/6J mouse (8-week-old) (Japan SLC Inc.; Shizuoka, Japan). After 4 days from the STZ administration, an oral glucose tolerance test (OGTT) was performed.
# (§2) OGTT was performed using the mouse starved for 12 hr. Glucose (2 g/ml/kg body weight) was administered by gavage, and the time point thereof was taken as 0 h. DCP-LA (0, 0.001, 0.01, 0.1 mg/kg) was orally administered 30 min before administration of glucose. The blood (10 μl) was collected from the tail vein at the time points of 0, 30, 60, and 90 min, and each plasma sample which was labeled with ABEE and prepared from the obtained blood was loaded on high performance liquid chromatography (HPLC) system (LC-10ATvp; Shimadzu Co., Kyoto, Japan). The glucose concentration was calculated from a peak area/concentration analytical curve prepared using the standard glucose solution.
# [3] = test system: type 2 diabetes model mouse (C57BL/KsJ-lepr^db/lepr^db mouse); test: Oral glucose tolerance test in type 2 diabetes model mouse; assay type: in vivo; conditions: DCP-LA 0.001, 0.01, 0.1 mg/kg orally 30 min before glucose 2 g/kg, 0-90 min, FIG. 3B
# Procedure: As type 2 diabetes model mouse, C57BL/KsJ-lepr^db/lepr^db mouse (female, 8-week-old) (CLEA Japan; Tokyo, Japan) was used.
# as §2
compound,measurement,setting,value
"CCCCCC1CC1CC1CC1CCCCCCCC(=O)O (centres unmarked) [DCP-LA, 8-[2-(2-pentyl-cyclopropylmethyl)-cyclopropyl]-octanoic acid]",sugar uptake promoting action in the presence of PKCε inhibitor GF109203X,"[1]; 0.1 μM DCP-LA with 0.1 μM GF109203X, FIG. 1B",not inhibited
same,glucose uptake into the cells,"[1]; 3T3L1-GLUT4myc adipocytes, 10 mM glucose PBS, given concentrations of DCP-LA, HPLC, FIG. 1A",promote sugar uptake into the adipocytes in a bell-shaped concentration-dependent manner
same,transport of GLUT4 onto the cellular membrane,GLUT4,not promoted significantly
same,blood glucose level,[2],dose-dependently lower the blood glucose level
same,blood glucose level,[3],dose-dependently lower the blood glucose level

# From US9889104B2, “Agent for treating diabetes” (NISHIZAKI BIOINFORMATION RESEARCH INSTITUTE, priority 2014, dated 2018)
